Assay results reported in patent US20060069132A1, “Azolecarboxamide herbicides” (priority 2004, published 2006).

Experiments:
bermudagrass = assay: Test C pre-/postemergence herbicide test; assay type: in vivo, Cynodon dactylon
Procedure, shortened: (§1)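 Emerged plants at the 1- to 4-leaf stage (2–18 cm), or freshly planted seeds, received test chemicals in a non-phytotoxic solvent mixture with surfactant. Response was visually scored against controls after 12 to 14 days in the greenhouse, on a 0 (no effect) to 100 (complete control) scale.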

giant foxtail = assay: Test C pre-/postemergence herbicide test; assay type: in vivo, Setaria faberi; settings: for Foxtail, Giant plant response rating: 500 g ai/ha
Procedure, shortened: as §1

lambsquarters = assay: Test C pre-/postemergence herbicide test; assay type: in vivo, Chenopodium album; settings: for Lambsquarters plant response rating: 500 g ai/ha
Procedure, shortened: as §1

morningglory = assay: Test C pre-/postemergence herbicide test; assay type: in vivo, Ipomoea coccinea; design: key to Plant response rating, Morningglory: 0 = no effect, 100 = complete control; settings: for Morningglory plant response rating: 500 g ai/ha
Procedure, shortened: as §1

eastern black nightshade = assay: Test C pre-/postemergence herbicide test; assay type: in vivo, Solanum ptycanthum; settings: for Plant response rating, Nightshade: visual, 12 to 14 days
Procedure, shortened: as §1

yellow nutsedge = assay: Test C pre-/postemergence herbicide test; assay type: in vivo, Cyperus esculentus; settings: for Plant response rating, Nutsedge, Yellow: visual, 12 to 14 days
Procedure, shortened: as §1

common ragweed = assay: Test C pre-/postemergence herbicide test; assay type: in vivo, Ambrosia elatior; design: key to Plant response rating, Ragweed: 0 = no effect, 100 = complete control; settings: for Ragweed plant response rating: 500 g ai/ha
Procedure, shortened: as §1

chickweed = assay: Test C postemergence herbicide test; assay type: in vivo, Stellaria media
Method: At the same time, plants selected from these crop and weed species and also winter barley (Hordeum vulgare L.), blackgrass (Alopecurus myosuroides Huds.), canarygrass (Phalaris minor Retz.), chickweed (Stellaria media (L.) Vill.), downy bromegrass (Bromus tectorum L.), green foxtail (Setaria viridis (L.) Beauv.), Italian ryegrass (Lolium multiflorum Lam.), wheat (Triticum aestivum L.), wild oat (Avenafatua L.) and windgrass (Apera spica-venti (L.) Beauv.) were treated with postemergence applications of some of the test chemicals formulated in the same manner. Plants ranged in height from 2 to 18 cm (1- to 4-leaf stage) for postemergence treatments. Plant species in the flooded paddy test consisted of rice (Oryza sativa), smallflower umbrella sedge (Cyperus difformis L.), ducksalad (Heteranthera limosa (Sw.) Willd.) and barnyardgrass (Echinochloa crus-galli (L.) Beauv.) grown to the 2-leaf stage for testing. Treated plants and controls were maintained in a greenhouse for 12 to 14 days, after which time all species were compared to controls and visually evaluated. Plant response ratings, summarized in Table C, are based on a scale of 0 to 100 where 0 is no effect and 100 is complete control. A dash (-) response means no test result.

[1] = 125 g ai/ha, scale 0 (no effect) to 100 (complete control), visual, 12 to 14 days, preemergence
[2] = 250 g ai/ha, scale 0 to 100 (0 no effect, 100 complete control), visual, 12 to 14 days, preemergence
[3] = Postemergence, 500 g ai/ha, scale 0 to 100
[4] = Postemergence, 125 g ai/ha, scale 0 to 100, 0 no effect, 100 complete control
[5] = Preemergence, 500 g ai/ha, scale 0 to 100, 0 no effect, 100 complete control
[6] = postemergence, 62 g ai/ha, scale 0 to 100
[7] = Postemergence, 250 g ai/ha, scale 0 to 100, 0 no effect, 100 complete control
[8] = Preemergence, scale 0 to 100, 0 no effect, 100 complete control
[9] = 125 g ai/ha, scale 0 (no effect) to 100 (complete control), preemergence
[10] = 250 g ai/ha, scale 0 to 100 (0 no effect, 100 complete control), preemergence

Compound: C#CCn1nc(C(C)(C)C)cc1C(=O)Nc1cccc(C(=O)NCC)c1 [Compound 50]
- Plant response rating (0 = no effect, 100 = complete control), Bermudagrass (bermudagrass; 62 g ai/ha, preemergence): 0
- Plant response rating, Bermudagrass (bermudagrass; [1]): 0
- Plant response rating, Bermudagrass (bermudagrass; [2]): 0
- Bermudagrass plant response rating (bermudagrass; [3]): 40
- Plant response rating, Bermudagrass (bermudagrass; [4]): 30
- Bermudagrass plant response rating (bermudagrass; Postemergence, 250 g ai/ha, scale 0 to 100): 30
- Bermudagrass plant response rating (bermudagrass; [5]): 10
- Plant response rating, Bermudagrass (bermudagrass; [6]): 0
- Plant response rating (0 = no effect, 100 = complete control), Foxtail, Giant (giant foxtail; 62 g ai/ha, preemergence): 0
- Plant response rating, Foxtail, Giant (giant foxtail; [1]): 0
- Plant response rating, Foxtail, Giant (giant foxtail; [2]): 0
- Foxtail, Giant plant response rating (giant foxtail; Postemergence, scale 0 to 100): 0
- Plant response rating, Foxtail, Giant (giant foxtail; [4]): 0
- Plant response rating, Foxtail, Giant (giant foxtail; [7]): 0
- Foxtail, Giant plant response rating (giant foxtail; [8]): 10
- Plant response rating, Foxtail, Giant (giant foxtail; [6]): 0
- Plant response rating (0 = no effect, 100 = complete control), Lambsquarters (lambsquarters; 62 g ai/ha, preemergence): 85
- Plant response rating, Lambsquarters (lambsquarters; [1]): 85
- Plant response rating, Lambsquarters (lambsquarters; [2]): 100
- Lambsquarters plant response rating (lambsquarters; Postemergence, scale 0 to 100): 0
- Plant response rating, Lambsquarters (lambsquarters; [7]): 0
- Lambsquarters plant response rating (lambsquarters; [8]): 100
- Plant response rating, Lambsquarters (lambsquarters; [6]): 0
- Plant response rating (0 = no effect, 100 = complete control), Morningglory (morningglory; 62 g ai/ha, preemergence): 0
- Plant response rating, Morningglory (morningglory; [1]): 0
- Plant response rating, Morningglory (morningglory; [2]): 0
- Morningglory plant response rating (morningglory; Postemergence, scale 0 to 100): 10
- Plant response rating, Morningglory (morningglory; [7]): 0
- Morningglory plant response rating (morningglory; [8]): 0
- Plant response rating, Morningglory (morningglory; [6]): 0
- Plant response rating (0 = no effect, 100 = complete control), Nightshade (eastern black nightshade; 62 g ai/ha, preemergence): 0
- Plant response rating, Nightshade (eastern black nightshade; [9]): 5
- Plant response rating, Nightshade (eastern black nightshade; [10]): 80
- Nightshade plant response rating (eastern black nightshade; [5]): 95
- Plant response rating (0 = no effect, 100 = complete control), Nutsedge, Yellow (yellow nutsedge; 62 g ai/ha, preemergence): 0
- Plant response rating, Nutsedge, Yellow (yellow nutsedge; [9]): 10
- Plant response rating, Nutsedge, Yellow (yellow nutsedge; [10]): 40
- Nutsedge, Yellow plant response rating (yellow nutsedge; [5]): 80
- Plant response rating (0 = no effect, 100 = complete control), Ragweed (common ragweed; 62 g ai/ha, preemergence): 10
- Plant response rating, Ragweed (common ragweed; [1]): 40
- Plant response rating, Ragweed (common ragweed; [2]): 80
- Ragweed plant response rating (common ragweed; Postemergence, scale 0 to 100): 85
- Plant response rating, Ragweed (common ragweed; [7]): 85
- Ragweed plant response rating (common ragweed; [8]): 100
- Plant response rating, Ragweed (common ragweed; [6]): 80
- Chickweed plant response rating (chickweed; [3]): 0
- Plant response rating, Chickweed (chickweed; [4]): 0
- Plant response rating, Chickweed (chickweed; [7]): 0
- Plant response rating, Chickweed (chickweed; [6]): 0
